# Data published in patent US20090182039A1, “Choline Salt Crystal of Azulene Compound” (priority 2005, published 2009).
# pIC50: −log10 of the molar value.
# Columns and labels:
# [1] = Crystal form stability (DSC analysis / X-ray powder diffraction); assay type: physicochemical; settings: behaviour on heating, drying or at room temperature
# Experimental: X-ray powder diffraction and differential scanning calorimeter analysis (DSC analysis) were conducted under the following conditions. “MAC Science […]22” equipped with a copper X-ray tube was used under the conditions of a current of 40 mA, a tube voltage of […], a sampling width of 0.020°, a scanning rate of 3°/min, wavelength of 1.54056 Å, and measurement angles of diffraction range of (2θ): 3 or 5 to 40°. “TA Instrument TA 5000” was used at a temperature from room temperature to 300° C. (10° C./min) and a N2 feed rate of 50 ml/min using an aluminum sampling pan.
# Storage stability test = assay type: physicochemical
# Experimental: (2-hydroxyethyl)trimethylammonium-4-(azulene-2-ylmethyl)-2-β-D-glucopyranosylphenolate (46 g) was put into a polyethylene bag, and the opening of the bag was closed with a bead band. The bag was put into another polyethylene bag containing silica gel (12 g). The opening of the bag was closed with a bead band. The bag was placed in a metal can, which was tightly sealed and stored in a dark place at 40° C. and 75% RH for six months. Apart from this, (2-hydroxyethyl)trimethylammonium-4-(azulene-2-ylmethyl)-2-β-D-glucopyranosylphenolate (10 g) was put into an open brown container and stored in a dark place at 40° C. and 75% RH for six months.
# [2] = target: T1, Human Na+-glucose cotransporter (human SGLT2) (Homo sapiens, UniProt P31639); test: Inhibition of methyl-α-D-glucopyranoside intake in CHO cells stably expressing human SGLT2; assay type: cell-based; settings: stated as equivalent to the value of Example 75 of Patent Document 1
# T1 construct: expressed in transfected cells; host or cells: CHO-K1
# T1 sequence (P31639 1-672): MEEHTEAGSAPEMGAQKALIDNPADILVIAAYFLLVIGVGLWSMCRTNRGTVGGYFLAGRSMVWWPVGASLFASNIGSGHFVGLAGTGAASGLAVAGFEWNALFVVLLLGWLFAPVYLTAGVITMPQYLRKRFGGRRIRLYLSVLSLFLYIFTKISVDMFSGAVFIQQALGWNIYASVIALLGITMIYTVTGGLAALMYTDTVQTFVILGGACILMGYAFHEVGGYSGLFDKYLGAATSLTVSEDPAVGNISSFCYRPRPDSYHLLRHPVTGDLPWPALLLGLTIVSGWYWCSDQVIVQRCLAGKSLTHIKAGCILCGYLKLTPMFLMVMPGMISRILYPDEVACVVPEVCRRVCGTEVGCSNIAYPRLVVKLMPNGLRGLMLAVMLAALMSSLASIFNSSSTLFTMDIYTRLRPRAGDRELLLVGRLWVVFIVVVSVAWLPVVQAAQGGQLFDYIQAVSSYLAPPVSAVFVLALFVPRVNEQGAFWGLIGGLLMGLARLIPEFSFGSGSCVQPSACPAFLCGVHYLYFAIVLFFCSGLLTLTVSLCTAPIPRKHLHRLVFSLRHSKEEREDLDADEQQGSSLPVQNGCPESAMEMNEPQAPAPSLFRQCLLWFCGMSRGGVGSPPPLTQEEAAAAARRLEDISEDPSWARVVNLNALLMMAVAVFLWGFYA
# From the text: [Test for Confirming Effect of Inhibiting Activity of Human Na^+-Glucose Cotransporter (Human SGLT2)]
# First, single-stranded cDNA was reversely transcripted from total RNA originating from human kidney (manufactured by BD Biosciences Clontech) using a Superscript II (manufactured by Invitrogen Corporation) and a random hexamer. Second, using the cDNA as a template, a DNA fragment encoding human SGLT2 (Wells R. G. et al., Am. J. Physiol., 1992, 263 (3) F459) was amplified by a PCR reaction using Pyrobest DNA polymerase (manufactured by Takara Bio Inc.) (A primer where a Hind III site and an EcoRI site were inserted into the 5′ side and the 3′ side of the DNA fragment, respectively, was used).
# The amplified fragment was cloned into a pCR2.1-Topo vector using a Topo TA Cloning Kit (manufactured by Invitrogen Corporation), and the cloned vector was transfected into a competent cell of Escherichia coli JM109. Ampicillin-resistant clones were cultured in a LB medium containing ampicillin (100 mg/l). A plasmid was purified from the cultured Escherichia coli using the method of Hanahan (see Maniatis et al., “Molecular Cloning”). […]
# [3] = 40° C., 75% RH, silica gel/polyethylene bags (double) in a metal can, dark place, 2 months
# [4] = 40° C., 75% RH, silica gel/polyethylene bags (double) in a metal can, dark place, 4 months
# [5] = 40° C., 75% RH, silica gel/polyethylene bags (double) in a metal can, dark place, 6 months
# [6] = at the start of storing, 0 month
# [7] = 40° C., 75% RH, brown glass container, open, dark place, 2 months
# [8] = 40° C., 75% RH, brown glass container, open, dark place, 4 months
# [9] = 40° C., 75% RH, brown glass container, open, dark place, 6 months
compound,measurement,setting,value
"[Na+].[O-]c1ccc(Cc2cc3cccccc-3c2)cc1[C@@H]1O[C@H](CO)[C@@H](O)[C@H](O)[C@H]1O [Comparative Example 1, sodium 4-(azulen-2-ylmethyl)-2-β-D-glucopyranosylphenolate]",Stability of the crystal form,[1],change form due to dissociation of volatile components at a low temperature
"[K+].[O-]c1ccc(Cc2cc3cccccc-3c2)cc1[C@@H]1O[C@H](CO)[C@@H](O)[C@H](O)[C@H]1O [Comparative Example 2, potassium 4-(azulen-2-ylmethyl)-2-β-D-glucopyranosylphenolate]",Stability of the crystal form,[1],change form due to dissociation of volatile components at a low temperature
"[Li+].[O-]c1ccc(Cc2cc3cccccc-3c2)cc1[C@@H]1O[C@H](CO)[C@@H](O)[C@H](O)[C@H]1O [Comparative Example 3, lithium 4-(azulen-2-ylmethyl)-2-β-D-glucopyranosylphenolate]",Stability of the crystal form,[1],change form due to dissociation of volatile components at a low temperature
"OC[C@H]1O[C@@H](c2cc(Cc3cc4cccccc-4c3)ccc2O)[C@H](O)[C@@H](O)[C@@H]1O [Comparative Example 5, (1S)-1,5-anhydro-1-[5-(azulen-2-ylmethyl)-2-hydroxyphenyl]-D-glucitol hydrate crystal-1]",Stability of the crystal form,[1],transformed into anhydride crystal-3 of azulene compound A
"OC[C@H]1O[C@@H](c2cc(Cc3cc4cccccc-4c3)ccc2O)[C@H](O)[C@@H](O)[C@@H]1O [Comparative Example 7, (1S)-1,5-anhydro-1-[5-(azulen-2-ylmethyl)-2-hydroxyphenyl]-D-glucitol anhydride crystal-1]",Stability of the crystal form,[1],stable only at high temperature and cannot be isolated at room temperature
"OC[C@H]1O[C@@H](c2cc(Cc3cc4cccccc-4c3)ccc2O)[C@H](O)[C@@H](O)[C@@H]1O [Comparative Example 8, (1S)-1,5-anhydro-1-[5-(azulen-2-ylmethyl)-2-hydroxyphenyl]-D-glucitol anhydride crystal-2]",Stability of the crystal form,[1],stable only at a high temperature and could not be isolated at room temperature
"OC[C@H]1O[C@@H](c2cc(Cc3cc4cccccc-4c3)ccc2O)[C@H](O)[C@@H](O)[C@@H]1O [Example 1, (2-hydroxyethyl)trimethylammonium 4-(azulen-2-ylmethyl)-2-β-D-glucopyranosylphenolate]",Analogous compounds (%) (HPCL) Maximum of each compound,Storage stability test; [3],0.26%
same,Analogous compounds (%) (HPCL) Total amount,Storage stability test; [3],0.66%
same,Quantitative analysis (%) (HPCL),Storage stability test; [3],99.5%
same,Water content (%),Storage stability test; [3],0.29%
same,Analogous compounds (%) (HPCL) Maximum of each compound,Storage stability test; [4],0.26%
same,Analogous compounds (%) (HPCL) Total amount,Storage stability test; [4],0.62%
same,Quantitative analysis (%) (HPCL),Storage stability test; [4],99.0%
same,Water content (%),Storage stability test; [4],0.22%
same,Analogous compounds (%) (HPCL) Maximum of each compound,Storage stability test; [5],0.27%
same,Analogous compounds (%) (HPCL) Total amount,Storage stability test; [5],0.44%
same,Quantitative analysis (%) (HPCL),Storage stability test; [5],99.5%
same,Water content (%),Storage stability test; [5],0.19%
same,Storage stability (conclusion from Table 3),"Storage stability test; 40° C., 75% RH, six months",stable compounds
same,Analogous compounds (%) (HPCL) Maximum of each compound,Storage stability test; [6],0.26%
same,Analogous compounds (%) (HPCL) Total amount,Storage stability test; [6],0.61%
same,Quantitative analysis (%) (HPCL),Storage stability test; [6],99.0%
same,Water content (%),Storage stability test; [6],0.39%
same,pIC50,[2],~8.05
"OC[C@H]1O[C@@H](c2cc(Cc3cc4cccccc-4c3)ccc2O)[C@H](O)[C@@H](O)[C@@H]1O [Example 2, (2-hydroxyethyl)trimethylammonium 4-(azulen-2-ylmethyl)-2-β-D-glucopyranosylphenolate hydrate]",Analogous compounds (%) (HPCL) Maximum of each compound,Storage stability test; [7],0.25%
same,Analogous compounds (%) (HPCL) Total amount,Storage stability test; [7],0.58%
same,Quantitative analysis (%) (HPCL),Storage stability test; [7],99.2%
same,Water content (%),Storage stability test; [7],3.78%
same,Analogous compounds (%) (HPCL) Maximum of each compound,Storage stability test; [8],0.24%
same,Analogous compounds (%) (HPCL) Total amount,Storage stability test; [8],0.57%
same,Quantitative analysis (%) (HPCL),Storage stability test; [8],99.9%
same,Water content (%),Storage stability test; [8],3.59%
same,Analogous compounds (%) (HPCL) Maximum of each compound,Storage stability test; [9],0.24%
same,Analogous compounds (%) (HPCL) Total amount,Storage stability test; [9],0.43%
same,Quantitative analysis (%) (HPCL),Storage stability test; [9],98.8%
same,Water content (%),Storage stability test; [9],3.61%
